Paper PMC12491518, “Fabrication of cytotoxic mirror image nanopores” (Nature Communications, 2025)
Where a SMILES comes first, the peptide text is derived from it. [ ]: non-standard residue; d: D form.

Legend:
[1] = Single-channel electrical recordings in planar lipid bilayers; assay type: biochemical; settings: for mean unitary conductance (G): 10 mM HEPES, pH 7.4, DpPorA at +50 mV, n = 83 insertions, DpPorA DE n = 61 insertions; for experimental conductance Gexp: Supplementary Table 1
Protocol: High-resolution electrical recordings for the single-channel characterization were conducted in planar lipid bilayers made up of 1,2-diphytanoyl-sn-glycero-3-phosphocholine (DPhPC, Avanti Polar Lipids)[23],[27],[51]. The lipid bilayer is formed across a polytetrafluoroethylene (Teflon) aperture of ~100 µm in diameter. Teflon is placed between the two sides of the Delrin bilayer chamber, partitioning it into cis and trans compartments (600 µL each). For constructing a solvent-free lipid bilayer, the aperture is made lipophilic by pre-painting both sides with hexadecane in n-pentane (1 μL, 5 mg mL^−1)[51]. After ~10 min, the chambers were filled with buffered electrolytes (1 M KCl, 10 mM HEPES, pH 7.4), and DPhPC in n-pentane (1 μL, 5 mg mL^−1) was added. After ~15 min incubation, the lipid bilayer is formed by raising and lowering the electrolyte solution, bringing the two lipid monolayers together at the aperture. The cis compartment was connected to the ground electrode, while the trans compartment was connected to the working live electrode. Subsequently, DpPorA or DpPorA DE peptides solubilized in 0.1% DDM (1 µL, 100 µg mL^−1) were consistently introduced into the cis compartment of the bilayer. The peptide pore insertion was facilitated by mixing the bilayer chamber and applying a high voltage of +200 mV. The single-channel electrical properties of the peptide pores and analyte-induced pore blockages were examined in 1 M KCl, 10 mM HEPES, pH 7.4. Ion selectivity was assessed under asymmetric salt conditions with a KCl concentration gradient across the planar lipid bilayer (0.15 M cis/1 M trans) (SI text)[27]. The ion current was acquired and amplified using an Axopatch 200B amplifier, digitized with Digidata 1550B digitizer, and recorded using the pClamp 11 acquisition software (Molecular Devices, CA). The current signals were filtered with a 2 kHz low-pass filter frequency and 10 kHz sampling frequency, or with 10 kHz low-pass filter frequency and 50 kHz sampling frequency, in line with the requirement.

[2] = target: proteinase K (Parengyodontium album, UniProt P06873); test: Proteinase K enzyme activity on peptides (SDS-PAGE); assay type: in vitro ADME; settings: 0.5 mg/ml proteinase K, 63°C, 30 min, 10 mM phosphate buffer with 0.1% DDM pH 7.4; SDS-PAGE and bilayer insertion
Protocol: applied through Ag/AgCl electrodes with agarose salt bridges. The pore formation in the […]
The 'reverse potential' (Vm) was calculated using the Goldman-Hodgkin-Katz equation1. […]
In this equation, R is the universal gas constant (8.314 J.K-1.mol-1), T is the temperature in Kelvin (K = °C + 273.15), F is Faraday's constant (96485 C.mol-1), PK+ is the membrane permeability for K+, PCl- is the relative membrane permeability for Cl-, [K+]cis is the concentration of K+ in the cis side, [K+]trans is the concentration of K+ in the trans side, [Cl-]cis is the concentration of Cl- in the cis side and [Cl-]trans is the concentration of Cl- in the trans side.
The reverse potential for DpPorA and DpPorA DE was calculated to be +21 mV and +40 mV, […]
c) Proteinase K enzyme activity on DpPorA and DpPorA DE pores
DpPorA peptides were prepared in 10 mM phosphate buffer with 0.1% DDM (pH 7.4). A final concentration of 0.5 mg/ml of freshly prepared proteinase K solution was added to the samples.
The reaction mixtures were heated at 63°C for 30 min. The proteolysis was terminated by adding 2 mM PMSF (phenylmethyl sulfonyl fluoride).2 The reaction products were loaded on a Mini-PROTEAN® TGX™ precast gel (Bio-Rad) with Protein Standard Marker (Bio-Rad) […]

[3] = GUV-based molecular transport assay; assay type: biochemical; settings: 100 mM KCl 10 mM HEPES pH 7.4, mean ± S.D., N = 4 batches
Protocol: The giant unilamellar vesicles (GUVs) were constructed using gel-assisted swelling methodology and labeled with 0.05 mol% ATTO 550 DOPE[27],[44],[61]. Thin lipid films were spread on polyvinyl alcohol (PVA) coated glass slides using 30 µL of a 1 mg/mL solution of DOPC (Cis and Ent lipids prepared separately). […] The successful formation of vesicles was verified in real time by phase-contrast microscopy. To study the transport across DpPorA and DpPorA DE pores, the peptides were added to GUVs (at a concentration of 10–15 µM in 0.1% DDM) along with the fluorescent hydrophilic molecules (namely Alexa Fluor 350 Hydrazide: M.W-349 Da, Alexa Fluor 555 Hydrazide: M.W-1150 Da, ATTO 488 Dextran: M.W-3000 Da)[62]. The uptake of fluorescent molecules was monitored over 40 min, with time-lapse imaging at every minute for the first 10 min and then at every 5 min for the following 30 min, tracking either single vesicles or multiple vesicles within the same field of view. Later on, individual vesicles were further scanned and imaged to obtain datasets for statistical analysis. Control experiments were conducted under identical conditions using vesicles prepared with the same detergent concentration but without peptide incorporation. At each time point, the vesicle images were blank-subtracted, and the intensity inside the vesicle ( Iin ) was normalized against the intensity outside ( Iout )[27]. Complete permeabilization of the vesicles was marked by Iin/Iout ≥ 0.98 for peptide-reconstituted vesicles, while Iin/Iout ≥ 0.95 was considered as the cut-off for permeabilization in the control vesicles.

[4] = DOPC (Cis-DOPC) GUVs, peptide 10 to 15 µM in 0.1% DDM

Chain of proteinase K (P06873 106-384, species assumed): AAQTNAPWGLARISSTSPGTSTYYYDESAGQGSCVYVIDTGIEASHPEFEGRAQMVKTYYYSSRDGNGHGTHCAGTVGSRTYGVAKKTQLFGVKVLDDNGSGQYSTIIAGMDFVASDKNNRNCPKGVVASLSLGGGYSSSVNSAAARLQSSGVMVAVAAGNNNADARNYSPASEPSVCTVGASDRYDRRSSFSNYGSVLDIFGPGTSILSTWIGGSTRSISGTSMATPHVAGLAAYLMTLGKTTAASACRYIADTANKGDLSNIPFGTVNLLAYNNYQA

Row | SMILES | mean unitary conductance (G) ([1]; 1 M KCl) [nS] | experimental conductance Gexp [1] [nS] | stability to proteinase K [2] | percentage of permeabilization, ATTO 488 Dextran [3, 4] [%] | percentage of permeabilization, Alexa Fluor 350 [3, 4] [%] | percentage of permeabilization, Alexa Fluor 555 [3, 4] [%] | unitary conductance (G) of proteinase K treated peptides ([1]; 1 M KCl, after proteinase K treatment, n = 25) [nS] | pores with slightly higher current at negative than positive voltages ([1]; 1 M KCl, current rectification of n = 30 single channels) [%] | percentage of permeabilization, ATTO 488 Dextran ([3]; Ent-DOPC GUVs, 0.1% DDM) [%] | percentage of permeabilization, Alexa Fluor 350 ([3]; Ent-DOPC GUVs, 0.1% DDM) [%] | percentage of permeabilization, Alexa Fluor 555 ([3]; Ent-DOPC GUVs, 0.1% DDM) [%]
1 | CC[C@@H](C)[C@@H](NC(=O)[C@H](N)CCSC)C(=O)N[C@H](CC(=O)O)C(=O)N[C@H](CCC(N)=O)C(=O)N[C@@H](C(=O)N[C@@H](C(=O)N[C@H](CCC(=O)O)C(=O)N[C@@H](C(=O)N[C@H](Cc1ccccc1)C(=O)NCC(=O)N[C@H](CCC(N)=O)C(=O)N[C@H](CC(C)C)C(=O)NCC(=O)N[C@@H](C(=O)N[C@H](Cc1ccccc1)C(=O)N[C@H](CC(C)C)C(=O)NCC(=O)NCC(=O)N[C@H](Cc1ccccc1)C(=O)NCC(=O)N[C@H](CC(N)=O)C(=O)N[C@@H](C(=O)N[C@H](Cc1ccccc1)C(=O)N[C@H](CCCCN)C(=O)NCC(=O)N[C@H](CC(C)C)C(=O)N[C@H](CCCCN)C(=O)N[C@H](C)C(=O)N[C@@H](C(=O)N[C@@H](C(=O)N[C@H](C)C(=O)N[C@@H](C(=O)N[C@@H](C(=O)N[C@@H](C(=O)N[C@H](CCCCN)C(=O)N[C@H](Cc1c[nH]c2ccccc12)C(=O)N[C@@H](C(=O)N[C@H](C)C(=O)N[C@H](C)C(=O)N[C@H](CCCCN)C(=O)O)[C@H](C)O)C(C)C)[C@H](C)CC)[C@H](C)O)[C@H](C)CC)C(C)C)[C@H](C)CC)[C@H](C)O)[C@H](C)CC)[C@H](C)O)[C@H](C)CC [DpPorA DE] (H-[dM][dI][dD][dQ][dI][dT][dE][dI][dF]G[dQ][dL]G[dT][dF][dL]GG[dF]G[dN][dI][dF][dK]G[dL][dK][dA][dV][dI][dA][dT][dI][dV][dK][dW][dT][dA][dA][dK]-OH; N-terminus and C-terminus assumed) | 3.80 ± 0.2 | 3.8 ± 0.2 | protease-stable | 53.8 ± 8 | 89.2 ± 3.7 | 71.3 ± 3.5 |  |  |  |  | 
2 | CC[C@@H](C)[C@@H](NC(=O)[C@H](N)CCSC)C(=O)N[C@H](CC(=O)O)C(=O)N[C@H](CCC(N)=O)C(=O)N[C@@H](C(=O)N[C@@H](C(=O)N[C@H](CCC(=O)O)C(=O)N[C@@H](C(=O)N[C@H](Cc1ccccc1)C(=O)NCC(=O)N[C@H](CCC(N)=O)C(=O)N[C@H](CC(C)C)C(=O)NCC(=O)N[C@@H](C(=O)N[C@H](Cc1ccccc1)C(=O)N[C@H](CC(C)C)C(=O)NCC(=O)NCC(=O)N[C@H](Cc1ccccc1)C(=O)NCC(=O)N[C@H](CC(N)=O)C(=O)N[C@@H](C(=O)N[C@H](Cc1ccccc1)C(=O)N[C@H](CCCCN)C(=O)NCC(=O)N[C@H](CC(C)C)C(=O)N[C@H](CCCCN)C(=O)N[C@H](CC(=O)O)C(=O)N[C@@H](C(=O)N[C@@H](C(=O)N[C@H](CCC(=O)O)C(=O)N[C@@H](C(=O)N[C@@H](C(=O)N[C@@H](C(=O)N[C@H](CCCCN)C(=O)N[C@H](Cc1c[nH]c2ccccc12)C(=O)N[C@@H](C(=O)N[C@H](C)C(=O)N[C@H](C)C(=O)N[C@H](CCCCN)C(=O)O)[C@H](C)O)C(C)C)[C@H](C)CC)[C@H](C)O)[C@H](C)CC)C(C)C)[C@H](C)CC)[C@H](C)O)[C@H](C)CC)[C@H](C)O)[C@H](C)CC [DpPorA] (H-[dM][dI][dD][dQ][dI][dT][dE][dI][dF]G[dQ][dL]G[dT][dF][dL]GG[dF]G[dN][dI][dF][dK]G[dL][dK][dD][dV][dI][dE][dT][dI][dV][dK][dW][dT][dA][dA][dK]-OH; N-terminus and C-terminus assumed) | 2.80 ± 0.2 | 2.8 ± 0.2 | resistant to proteinase K action | 73.0 ± 14.1 | 88.9±7.8 | 67.9± 10.4 | 2.8 ± 0.2 | 90 | 72.70±14.61 | 95.13±3.54 | 70.38±4.93
